The values that follow come from paper PMC5826336 (Frontiers in Synaptic Neuroscience, 2018).

Like-named read-outs stand apart in the source and are kept apart here. Where only a bound is given, the exact number is not on record here.

What all share (assay type): cell-based
For assay [1], the target named is T1, D2R long isoform (PathHunter) (Homo sapiens, UniProt P14416).
T1 construct: gene DRD2; long isoform in CHO-K1 PathHunter cells (DiscoverX), beta-galactosidase enzyme-fragment complementation with beta-arrestin; reporter tags not detailed
T1 sequence (P14416 whole entry, the tested form may be a part, canonical isoform): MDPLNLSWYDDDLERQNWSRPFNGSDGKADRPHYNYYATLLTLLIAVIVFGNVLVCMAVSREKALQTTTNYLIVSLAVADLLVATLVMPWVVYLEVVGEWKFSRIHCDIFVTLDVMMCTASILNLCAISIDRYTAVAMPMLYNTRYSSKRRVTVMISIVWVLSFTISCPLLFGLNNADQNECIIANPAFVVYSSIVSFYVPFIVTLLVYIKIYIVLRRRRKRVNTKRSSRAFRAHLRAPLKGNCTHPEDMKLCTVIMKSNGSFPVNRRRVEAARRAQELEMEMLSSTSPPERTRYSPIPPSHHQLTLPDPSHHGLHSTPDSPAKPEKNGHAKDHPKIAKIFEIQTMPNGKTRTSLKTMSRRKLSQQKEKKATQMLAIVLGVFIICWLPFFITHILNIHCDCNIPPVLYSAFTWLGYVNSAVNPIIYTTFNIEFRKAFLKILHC
The assay can be described thus: PathHunter beta-arrestin recruitment, agonist mode. The source says: PathHunter beta-arrestin recruitment, agonist mode on D2R long isoform (PathHunter)
Background: Arrestin recruitment assays detect the binding of arrestin to an activated receptor.

Assay [2] addresses T2, human D2R long isoform (Homo sapiens, UniProt P14416).
T2 construct: gene DRD2; full-length long isoform stably expressed in CHO-K1 cells from DiscoverX, HitHunter cAMP assay
The assay can be described thus: HitHunter cAMP assay, inhibition of forskolin-stimulated cAMP, agonist mode. The source says: HitHunter cAMP assay, inhibition of forskolin-stimulated cAMP, agonist mode on human D2R long isoform
On the technique in general: Changes in cAMP serve as a functional read-out for many G protein-coupled receptors.

In assay [3] the target is T2, human D2R long isoform. The assay can be described thus: antagonism of D2R cAMP and beta-arrestin signaling (data not shown). As to conditions: CHO-K1.
Where [4] appears, read: read-out: cAMP inhibition assay / EC50 (μM ± S.E.M.).
Setting [5] is: read-out: cAMP inhibition assay / EC50 (μM ± SEM).

T2 sequence (P14416 whole entry, canonical isoform): as the sequence (P14416 whole entry, the tested form may be a part, canonical isoform) above

`c1cncc(N2CCN(Cc3cccc4ccccc34)CC2)c1` [compound 28]: the results for the EC50 (in assay [1]; on human D2R long isoform [2] (setting [4])) were 7700 ± 300 nM and 13.3 ± 8.6 µM, respectively.
As to `c1ccc(N2CCN(Cc3cccc4ccccc34)CC2)nc1` [compound 12], the EC50 at human D2R long isoform [2] (setting [5]) was found to be 0.7 ± 0.7 µM.
Turning to `c1cnc(N2CCN(Cc3cccc4ccccc34)CC2)nc1` [compound 46], the EC50 in assay [1] worked out at 14500 ± 1500 nM; on human D2R long isoform [2] (setting [4]) it was 8.5 ± 4 µM.
Regarding `Oc1c(CN2CCN(C3CCCCC3)CC2)cc(Cl)c2cccnc12` [compound 24], the “antagonism of D2R cAMP and beta-arrestin signaling (data not shown)” value on human D2R long isoform [3] is “compounds with cyclohexane substituents retained binding affinity for the D2R”.
As to `c1cc2ccc(CN3CCN(C4CCCCC4)CC3)cc2[nH]1` [compound 50], the “antagonism of D2R cAMP and beta-arrestin signaling (data not shown)” value on human D2R long isoform [3] is “compounds with cyclohexane substituents retained binding affinity for the D2R”.
Take `c1cncc(N2CCN(Cc3ccc4cc[nH]c4c3)CC2)c1` [compound 25]: the EC50 in assay [1] is above 39000 nM.
With `Oc1c(CN2CCN(c3ccccc3)CC2)cc(Cl)c2cccnc12` [compound 23], the EC50 on human D2R long isoform [2] (setting [4]) stood at 2.8 ± 1.2 µM.
As to `Oc1c(CN2CCN(c3ncccn3)CC2)cc(Cl)c2cccnc12` [compound 19], the EC50 came out at 500 ± 300 nM in assay [1] and 0.7 ± 0.2 µM on human D2R long isoform [2] (setting [4]).
Consider `Oc1c(CN2CCN(c3ccccn3)CC2)cc(Cl)c2cccnc12` [compound 1, MLS1547], for which the EC50 at human D2R long isoform [2] (setting [5]) amounted to 2.2 ± 0.6 µM.
`Oc1c(CN2CCN(c3ccccn3)CC2)cc(Br)c2cccnc12` [compound 3]: at human D2R long isoform [2] (setting [5]), the EC50 amounted to 7.9 ± 2.1 µM.
Take `Oc1c(CN2CCN(c3cnccn3)CC2)cc(Cl)c2cccnc12` [compound 18]: at human D2R long isoform [2] (setting [4]), the EC50 was determined as 3.5 ± 3.4 µM.
For `c1cnc(N2CCN(Cc3ccc4ccccc4c3)CC2)nc1` [compound 45], the results for the EC50 (in assay [1]; on human D2R long isoform [2] (setting [4])) were 2600 ± 1100 nM and 0.8 ± 0.1 µM, respectively.
`c1ccc2cc(CN3CCN(c4cnccn4)CC3)ccc2c1` [compound 37] came in with an EC50 in assay [1] of 24800 ± 15500 nM.
For `c1cnc(N2CCN(Cc3cc4ccccc4[nH]3)CC2)nc1` [compound 44], the EC50 worked out at 1000 ± 200 nM in assay [1] and 0.6 ± 0.5 µM on human D2R long isoform [2] (setting [4]).
Regarding `COc1c(CN2CCN(c3ccccn3)CC2)cc(Cl)c2cccnc12` [compound 4], at human D2R long isoform [2] (setting [5]), the EC50 was 13.4 ± 11.7 µM.
As for `c1ccc2c(CN3CCN(c4cnccn4)CC3)cccc2c1` [compound 38], the EC50 at human D2R long isoform [2] (setting [4]) came to 27.3 ± 18.2 µM.
`Clc1c(CN2CCN(c3ccccn3)CC2)ccc2cccnc12` [compound 7]: the EC50 in assay [1] stood at 7300 ± 1800 nM; on human D2R long isoform [2] (setting [5]) it was 6.6 ± 5.5 µM.
With `Oc1c(CN2CCN(c3ccccn3)CC2)ccc2cccnc12` [compound 2], the EC50 was 900 ± 300 nM in assay [1] and 0.3 ± 0.09 µM on human D2R long isoform [2] (setting [5]).
For `c1cnc(N2CCN(Cc3ccc4cc[nH]c4c3)CC2)nc1` [compound 43], the EC50 amounted to 100 ± 10 nM in assay [1] and 0.04 ± 0.01 µM on human D2R long isoform [2] (setting [4]).
